The source of these data is US20230271954A1 (Gossamer Bio Services, Inc., priority 2020, published 2023).

For one test, the target named is DGKα (Homo sapiens, UniProt P23743). As to the kind of experiment: DGKα biochemical assay (ADP-Glo). To be noted: read-out: DGK α IC50. In short, it runs like this:
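ADP-Glo kinase assay using OAG/PS (1:2) lipid substrate, sonicated, in HEPES pH 7.0 buffer with MgCl2, CaCl2, DTT, BSA, Triton X-100. Enzyme preincubated with compound 30 min at RT; substrate with ATP (DGKα: 400 μM) added, 45 min RT. Luminescence read; % inhibition vs DMSO and no-enzyme controls.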
A general note: ADP-Glo first removes unused ATP, then detects ADP through luciferase.

The target of the next test is T1, DGKζ (Homo sapiens, UniProt Q13574).
T1 construct: purchased Carna 12-110
T1 sequence (Q13574 1-929 isoform Q13574-4): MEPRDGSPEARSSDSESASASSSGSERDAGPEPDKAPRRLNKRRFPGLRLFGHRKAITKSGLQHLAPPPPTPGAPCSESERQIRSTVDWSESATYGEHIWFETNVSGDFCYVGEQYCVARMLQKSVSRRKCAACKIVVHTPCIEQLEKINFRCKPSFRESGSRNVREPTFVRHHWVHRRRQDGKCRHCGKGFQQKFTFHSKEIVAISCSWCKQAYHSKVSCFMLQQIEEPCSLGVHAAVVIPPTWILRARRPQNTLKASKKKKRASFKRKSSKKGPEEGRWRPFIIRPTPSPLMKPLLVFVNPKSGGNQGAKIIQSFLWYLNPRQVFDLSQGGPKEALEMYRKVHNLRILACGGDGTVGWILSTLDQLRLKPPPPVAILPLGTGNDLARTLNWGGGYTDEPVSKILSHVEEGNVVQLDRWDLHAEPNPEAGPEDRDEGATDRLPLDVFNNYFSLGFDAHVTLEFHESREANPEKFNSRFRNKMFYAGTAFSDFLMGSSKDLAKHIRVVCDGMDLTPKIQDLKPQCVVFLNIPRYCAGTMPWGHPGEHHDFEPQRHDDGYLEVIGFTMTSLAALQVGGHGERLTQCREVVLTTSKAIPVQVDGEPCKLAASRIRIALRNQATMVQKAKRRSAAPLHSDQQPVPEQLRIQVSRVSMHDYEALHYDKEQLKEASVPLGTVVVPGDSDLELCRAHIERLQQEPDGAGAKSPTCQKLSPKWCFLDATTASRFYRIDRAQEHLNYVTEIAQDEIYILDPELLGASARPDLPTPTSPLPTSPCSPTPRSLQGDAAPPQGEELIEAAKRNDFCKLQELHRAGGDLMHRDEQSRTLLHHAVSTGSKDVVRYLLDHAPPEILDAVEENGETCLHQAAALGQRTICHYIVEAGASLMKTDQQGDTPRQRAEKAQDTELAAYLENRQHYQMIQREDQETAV
The test is described as follows: DGKζ biochemical assay (ADP-Glo). The settings on record: read-out: DGK ζ IC50.

Molecules are shown by their SMILES. pIC50: −log10 of the molar value.

Chain of DGKα (P23743 whole entry): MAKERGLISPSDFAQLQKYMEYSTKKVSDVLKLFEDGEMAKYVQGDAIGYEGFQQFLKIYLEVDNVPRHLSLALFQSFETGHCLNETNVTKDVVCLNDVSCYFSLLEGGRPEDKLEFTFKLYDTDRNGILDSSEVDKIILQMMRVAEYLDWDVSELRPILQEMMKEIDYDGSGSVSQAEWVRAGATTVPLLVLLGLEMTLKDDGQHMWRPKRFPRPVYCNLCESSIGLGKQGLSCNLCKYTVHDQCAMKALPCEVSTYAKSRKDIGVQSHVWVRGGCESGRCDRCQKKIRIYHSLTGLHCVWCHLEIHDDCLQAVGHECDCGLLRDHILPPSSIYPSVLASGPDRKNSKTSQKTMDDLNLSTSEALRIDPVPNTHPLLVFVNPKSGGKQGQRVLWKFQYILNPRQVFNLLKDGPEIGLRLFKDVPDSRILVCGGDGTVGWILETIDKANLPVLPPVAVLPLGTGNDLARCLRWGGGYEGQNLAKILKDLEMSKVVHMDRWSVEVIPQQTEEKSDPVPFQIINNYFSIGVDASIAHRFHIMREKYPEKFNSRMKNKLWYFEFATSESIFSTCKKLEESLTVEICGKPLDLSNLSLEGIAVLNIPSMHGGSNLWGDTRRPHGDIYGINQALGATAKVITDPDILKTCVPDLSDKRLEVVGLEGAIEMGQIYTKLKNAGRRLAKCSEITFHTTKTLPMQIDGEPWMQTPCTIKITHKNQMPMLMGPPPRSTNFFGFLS

For orientation: pIC50 means the negative decadic logarithm of the IC50, by convention in mol/L. `Cn1c(=O)cc(N(C)[C@H]2CC[C@@H](N(CC3CC3)c3ccc(F)c(OC(F)F)c3)CC2)c2nc(C#N)ccc21` [Example 84]: the pIC50 was 7.00 to 8.00 on DGKα and 6.00 to 7.00 on DGKζ.

As to `Cc1cc(F)ncc1N(CC1CCC1)[C@H]1CC[C@H](N(C)c2c(C#N)c(=O)n(C)c3ccc(C#N)nc23)CC1` [Example 140, trans-8-((-4-((cyclobutylmethyl)(6-fluoro-4-methylpyridin-3-yl)amino)cyclohexyl)(methyl)amino)-5-methyl-6-oxo-5,6-dihydro-1,5-naphthyridine-2,7-dicarbonitrile], the pIC50 is 6.00 to 7.00 on DGKα and 7.00 to 8.00 at DGKζ.

Regarding `Cn1c(=O)cc(N(C)[C@H]2CC[C@@H](N(CC3CCC3)c3cc4c(cc3F)OCO4)CC2)c2nc(C#N)ccc21` [Example 161, cis-8-((-4-((cyclobutylmethyl)(6-fluorobenzo[d][1,3]dioxol-5-yl)amino)cyclohexyl)(methyl)amino)-5-methyl-6-oxo-5,6-dihydro-1,5-naphthyridine-2-carbonitrile], the negative logarithm of the IC50 (pIC50) is more than 8.00 at DGKα and 7.00 to 8.00 at DGKζ.

With `COc1cc(F)ccc1N(CC1CC1)[C@H]1CC[C@H](N(C)c2cc(=O)n(C)c3ccc(C#N)nc23)CC1` [Example 3Y, trans-8-[[4-(N-cyclopropylmethyl-N-4-fluoro-2-methoxyphenyl-anilino)cyclohexyl]-methyl-amino]-5-methyl-6-oxo-5,6-dihydro-1,5-naphthyridine-2-carbonitrile], the negative-log IC50 (pIC50) at DGKα and at DGKζ was not above 6.00 in each case.

For the compound `COc1cc(N(CC2CC2)[C@H]2CC[C@H](N(C)c3cc(=O)n(C)c4ccc(C#N)nc34)CC2)cc(F)c1F` [Example 95], the pIC50 is not above 6.00 on DGKα and 6.00 to 7.00 at DGKζ.

`COc1cccc(N(CC2CC2)[C@H]2CC[C@H](N(C)c3c(C#N)c(=O)n(C)c4cccnc34)CC2)c1` [Example 13, trans-4-((4-((cyclopropylmethyl)(3-methoxyphenyl)amino)cyclohexyl)(methyl)amino)-1-methyl-2-oxo-1,2-dihydro-1,5-naphthyridine-3-carbonitrile]: the pIC50 at DGKα is 7.00 to 8.00; at DGKζ, not above 6.00.

Take `Cn1c(=O)c(C#N)c(N(C)[C@H]2CC[C@H](N(CC3CCC3)c3ccc(F)cc3CO)CC2)c2nc(Cl)ccc21` [Example 154, trans-6-chloro-4-((4-((cyclobutylmethyl)(4-fluoro-2-(hydroxymethyl)phenyl)amino)cyclohexyl)(methyl)amino)-1-methyl-2-oxo-1,2-dihydro-1,5-naphthyridine-3-carbonitrile]: the pIC50 at DGKα and on DGKζ was not above 6.00 throughout.

With `Cc1[nH]c2ccccc2c1C(=O)N[C@H]1CC[C@H](N(CC2CC2)c2ccccc2)CC1` [Example 4B], the negative-log IC50 (pIC50) at DGKα and at DGKζ was not above 6.00 throughout.

For the compound `COc1cccc(N(CC2CC2)[C@H]2CC[C@@H](N(C)c3c(C#N)c(=O)n(C)c4ccc(C#N)nc34)CC2)c1` [Example 28, cis-8-((4-((cyclopropylmethyl)(3-methoxyphenyl)amino)cyclohexyl)(methyl)amino)-5-methyl-6-oxo-5,6-dihydro-1,5-naphthyridine-2,7-dicarbonitrile], the pIC50 at DGKα is 7.00 to 8.00; on DGKζ, 6.00 to 7.00.

On to `Cn1c(=O)cc(N(C)[C@H]2CC[C@@H](N(CC3COCCO3)c3cccc4c3OCO4)CC2)c2nc(C#N)ccc21` (single isomer, unassigned) [Example 196, cis-8-((-4-((((R or S)-1,4-dioxan-2-yl)methyl) (benzo[d][1,3]dioxol-4-yl)amino)cyclohexyl)(methyl)amino)-5-methyl-6-oxo-5,6-dihydro-1,5-naphthyridine-2-carbonitrile], for which the pIC50 is not above 6.00 on DGKα and 6.00 to 7.00 on DGKζ.

Regarding `Cn1c(=O)c(C#N)c(N(C)[C@H]2CC[C@@H](N(CC3CCOC3)c3ccc(F)cc3)CC2)c2nc(C#N)ccc21` (relative stereo) [Example 55, cis-8-((4-((4-fluorophenyl)((tetrahydrofuran-3-yl)methyl)amino)cyclohexyl)(methyl)amino)-5-methyl-6-oxo-5,6-dihydro-1,5-naphthyridine-2,7-dicarbonitrile], the negative-log IC50 (pIC50) at DGKα was more than 8.00; on DGKζ it was 7.00 to 8.00.

Regarding `Cn1c(=O)c(C#N)c(N(C)[C@H]2CC[C@H](N(CC3CCC3)c3cccc4c3OCO4)CC2)c2nc(Cl)ccc21` [Example 132, trans-4-((-4-(benzo[d][1,3]dioxol-4-yl(cyclobutylmethyl)amino)cyclohexyl)(methyl)amino)-6-chloro-1-methyl-2-oxo-1,2-dihydro-1,5-naphthyridine-3-carbonitrile], the negative-log IC50 (pIC50) was more than 8.00 at DGKα and 7.00 to 8.00 on DGKζ.

For the compound `Cn1c(=O)c(C#N)c(N(C)[C@H]2CC[C@@H](N(CC3CC3)c3cc4c(cn3)OCO4)CC2)c2nc(C#N)ccc21` [Example 213, cis-8-((-4-([1,3]dioxolo[4,5-c]pyridin-6-yl(cyclopropylmethyl)amino)cyclohexyl)(methyl)amino)-5-methyl-6-oxo-5,6-dihydro-1,5-naphthyridine-2,7-dicarbonitrile], the negative-log IC50 (pIC50) is 7.00 to 8.00 on DGKα and 6.00 to 7.00 at DGKζ.

In the case of `Cn1c(=O)c(C#N)c(N(C)[C@H]2CC[C@@H](N(CC3CC3)c3ccc(F)cc3)CC2)c2nc(C#N)ccc21` [Example 30, cis-8-((4-((cyclopropylmethyl)(4-fluorophenyl)amino)cyclohexyl)(methyl)amino)-5-methyl-6-oxo-5,6-dihydro-1,5-naphthyridine-2,7-dicarbonitrile], the negative-log IC50 (pIC50) at DGKα is more than 8.00; on DGKζ it was 7.00 to 8.00.

Take `COc1cc(N(CC2CC2)[C@H]2CC[C@H](N(C)c3c(C#N)c(=O)n(C)c4ccc(C#N)nc34)CC2)cc(OC)c1F` [Example 115, trans-8-((-4-((cyclopropylmethyl)(4-fluoro-3,5-dimethoxyphenyl)amino)cyclohexyl)(methyl)amino)-5-methyl-6-oxo-5,6-dihydro-1,5-naphthyridine-2,7-dicarbonitrile]: the pIC50 on DGKα and on DGKζ was 6.00 to 7.00 throughout.

Turning to `CN1CCN(Cc2ccc(N(CC3CC3)C3CCC(N(C)c4c(C#N)c(=O)n(C)c5ccc(C#N)nc45)CC3)cc2)CC1` (single isomer, unassigned) [Example 199, (cis or trans)-8-((4-((cyclopropylmethyl)(4-((4-methylpiperazin-1-yl)methyl)phenyl)amino)cyclohexyl)(methyl)amino)-5-methyl-6-oxo-5,6-dihydro-1,5-naphthyridine-2,7-dicarbonitrile], the pIC50 on DGKα and on DGKζ was not above 6.00 each time.

For `Cn1c(=O)c(C#N)c(N(C)[C@H]2CC[C@H](N(CC3CC3)c3ccc(F)cc3)CC2)c2nc(C#N)ccc21` [Example 54, trans-8-((4-((cyclopropylmethyl)(4-fluorophenyl)amino)cyclohexyl)(methyl)amino)-5-methyl-6-oxo-5,6-dihydro-1,5-naphthyridine-2,7-dicarbonitrile], the negative-log IC50 (pIC50) at DGKα and on DGKζ was 6.00 to 7.00 throughout.

Consider `Cc1cc(F)ccc1N(CC1CC(F)(F)C1)[C@H]1CC[C@H](N(C)c2c(C#N)c(=O)n(C)c3ccc(C#N)nc23)CC1` [Example 178, trans-8-((-4-(((3,3-difluorocyclobutyl)methyl)(4-fluoro-2-methylphenyl)amino)cyclohexyl)(methyl)amino)-5-methyl-6-oxo-5,6-dihydro-1,5-naphthyridine-2,7-dicarbonitrile], for which the negative-log IC50 (pIC50) on DGKα and at DGKζ was 6.00 to 7.00 in each case.
